According to PMC3269340, “Pharmacokinetics of memantine in rats and mice” (PLoS Currents, 2012):

Experiment: in vivo
Details: male, C57Bl/6, mouse
Method: The goals of these studies were to evaluate the PK of memantine (hydrochloride salt) in Sprague-Dawley rats and C57Bl/6 mice following a single intravenous bolus (iv; 1 mg eq./kg), oral gavage (po; 1 and 10 mg eq./kg), or subcutaneous (sc; 1 and 10 mg eq./kg) administration.
Sprague Dawley (SD) rats (138 adult males), and C57Bl/6 mice (140 adult males), were obtained (Hilltop Laboratories, Scottsdale, PA); 123 per species were used in the study and the remainder provided blank matrix. Animals were individually identified by tail markings and were acclimated to the study environment for 16-21 days prior to dose administration. Animals were individually housed in suspended wire caging, and were kept on a 12h/12h light/dark cycle except when interrupted for study procedures. Average room temperature was regulated in the range 18 to 29°C, average relative humidity of 30-70%, and an average daily airflow >10 fresh air changes/h. Animals were fed LabDiet^Ò Certified Rodent Diet 5002 Meal food ad libitum, except during fasting prior to dose administration, and had access to water ad libitum.
Memantine was dosed as a solution in physiological saline as a single dose via intravenous bolus (1 mg eq./kg), oral gavage (po; 1 and 10 mg eq./kg), or subcutaneous (sc; 1 and 10 mg eq./kg) administration. The concentration of memantine in the 1 mg eq./kg iv, po, and sc solutions dosed to rats was 1 mg eq./mL, and the dose volume was 1 mL/kg. The concentration of memantine for the same dose level administered to mice was 0.2 mg eq./mL, and the dose volume was 5 mL/kg. The concentration of memantine in the 10mg eq./kg po and sc solutions was 5 mg eq./mL and the dose volume was 2 mL/kg for both rats and mice.
Details of the dose administration, body weights, clinical observations, plasma and brain sample collection and preparation are not shown in this report but are available upon request. Blood (for preparation of plasma) and brain samples were collected at 0.08, 0.25, 0.5, 1, 2, 4, 8, and 24h post-dose.
Since all time points were terminal, mean memantine concentrations per time point were used to calculate the composite PK parameters by non-compartmental analysis using WinNonlin program, version 5.2 (Pharsight Corp., Mountain View, California). A model was selected based on the vascular (iv bolus) or extravascular (po or sc) routes of administration. For the iv route, plasma concentration at time zero was back extrapolated from the first two observed post dose plasma concentrations. For the po and sc routes, concentration at time zero was assumed to be zero. Plasma and tissue concentrations below the limit of quantitation were treated as absent samples for the purpose of calculating the mean plasma concentration values or for calculating PK parameters.
The area under the plasma concentration versus time curve (AUC) was calculated using the linear trapezoidal method (linear interpolation). When appropriate, the terminal elimination phase of the PK profile was estimated based on the best fit (r^2) using at least the last three observed concentrations. PK parameters describing the systemic exposure of memantine in plasma and brain were estimated from observed (rather than predicted) plasma/brain concentrations, the dosing regimen, the AUC, and the terminal elimination phase rate constant (kel) for each group. The portion of the AUC from the last measurable concentration to infinity was estimated from the equation Ct/kel, where Ct represents the last measurable concentration. The extrapolated portion of the AUC was used for the determination of AUC0-∞. The percent bioavailability (%F) was calculated by dividing the dose normalized extravascular plasma AUC0-∞ by the dose normalized iv plasma AUC0-∞ times 100. The bioavailability calculations assumed concentrations were in the linear range.
Concentrations of memantine in rat and mouse plasma and brain were determined using an LC-MS/MS assay developed at ABC Laboratories.

CC12CC3CC(C)(C1)CC(N)(C3)C2 [memantine]
Cmax and exposures increase, fold more than dose-proportional: ~ 1.5 fold | Cmax/Cmin ratios: > 100 | Contribution of active transport to clearance: > 100% | delay in Tmax for brain compared to plasma: 0.25 to 1.5 h | elimination half-life: < 4 h | total systemic clearance, times higher than GFR: ~4.5 fold | C max/ C min ratio (10 mg/kg): 760 | concentration at 24 h (10 mg/kg): 10 nM | Tmax (10 mg/kg, T max): 0.5 to 1 h | Tmax (Tmax after extravascular administration): 0.25 to 0.5 h | half-life (brain elimination half-lives after extravascular administrations): 2.16 to 3.05 h | half-life (elimination half-life): 3 to 4 h | Cmax (in vivo, iv, 1 mg/kg): 7700 nM | Cmax (in vivo, sc, 1 mg/kg): 527 nM | Half-life (t½) (iv, 1 mg/kg): 2.98 h | MRT inf (iv, 1 mg/kg): 2.35 h | clearance (iv, 1 mg/kg): 63.5 mL/min/kg | half-life (iv, 1 mg/kg, Half-life (t½)): 1.97 h | Tmax (iv, 1 mg/kg, Observed Tmax): 1 h | half-life (iv, t 1/2): 3 h | bioavailability (po): 85% | Half-life (t½) (po, 1 mg/kg): 3.02 h | bioavailability (po, 1 mg/kg): 84.6% | AUC(0-inf) (po, 1 mg/kg): 1.2 µM·h | Cmax (po, 1 mg/kg, C max): 500 nM | half-life (po, 1 mg/kg, Half-life (t½)): 1.86 h | Tmax (po, 1 mg/kg, Observed Tmax): 0.5 h | Tmax (po, 1 mg/kg, T max): 0.5 h | Half-life (t½) (po, 10 mg/kg): 3.05 h | bioavailability (po, 10 mg/kg): 125% | AUC(0-inf) (po, 10 mg/kg): 18.2 µM·h | Cmax (po, 10 mg/kg, C max): 7600 nM | half-life (po, 10 mg/kg, Half-life (t½)): 2.92 h | Half-life (t½) (sc, 1 mg/kg): 2.16 h | bioavailability (sc, 1 mg/kg): 97.8% | half-life (sc, 1 mg/kg, Half-life (t½)): 1.64 h | Cmax (sc, 1 mg/kg, Observed Cmax): 5360 nM | Half-life (t½) (sc, 10 mg/kg): 3.00 h | bioavailability (sc, 10 mg/kg): 150% | half-life (sc, 10 mg/kg, Half-life (t½)): 3.07 h
